# In paper PMC11589570, “Critical assessment of LC3/GABARAP ligands used for degrader development and ligandability of LC3/GABARAP binding pockets” (Nature Communications, 2024):
# Several values for one entry are separate records, joined by “and”; a condition that tells them apart may be missing. Equal values may be shown once.
# Columns and labels:
# Assay type in all cases: binding
# KIF11 = target: T1, KIF11 (Homo sapiens, UniProt P52732); assay: Chemoproteomic competition pulldown assay (affinity matrix, LC-MS/MS) in HEK293T lysate; conditions: over 4000 proteins identified
# T1 construct: endogenous in cells; host or cells: HEK293 / HEK293T (ATCC; CRL-11268) lysate
# T1 sequence (P52732 1-1056): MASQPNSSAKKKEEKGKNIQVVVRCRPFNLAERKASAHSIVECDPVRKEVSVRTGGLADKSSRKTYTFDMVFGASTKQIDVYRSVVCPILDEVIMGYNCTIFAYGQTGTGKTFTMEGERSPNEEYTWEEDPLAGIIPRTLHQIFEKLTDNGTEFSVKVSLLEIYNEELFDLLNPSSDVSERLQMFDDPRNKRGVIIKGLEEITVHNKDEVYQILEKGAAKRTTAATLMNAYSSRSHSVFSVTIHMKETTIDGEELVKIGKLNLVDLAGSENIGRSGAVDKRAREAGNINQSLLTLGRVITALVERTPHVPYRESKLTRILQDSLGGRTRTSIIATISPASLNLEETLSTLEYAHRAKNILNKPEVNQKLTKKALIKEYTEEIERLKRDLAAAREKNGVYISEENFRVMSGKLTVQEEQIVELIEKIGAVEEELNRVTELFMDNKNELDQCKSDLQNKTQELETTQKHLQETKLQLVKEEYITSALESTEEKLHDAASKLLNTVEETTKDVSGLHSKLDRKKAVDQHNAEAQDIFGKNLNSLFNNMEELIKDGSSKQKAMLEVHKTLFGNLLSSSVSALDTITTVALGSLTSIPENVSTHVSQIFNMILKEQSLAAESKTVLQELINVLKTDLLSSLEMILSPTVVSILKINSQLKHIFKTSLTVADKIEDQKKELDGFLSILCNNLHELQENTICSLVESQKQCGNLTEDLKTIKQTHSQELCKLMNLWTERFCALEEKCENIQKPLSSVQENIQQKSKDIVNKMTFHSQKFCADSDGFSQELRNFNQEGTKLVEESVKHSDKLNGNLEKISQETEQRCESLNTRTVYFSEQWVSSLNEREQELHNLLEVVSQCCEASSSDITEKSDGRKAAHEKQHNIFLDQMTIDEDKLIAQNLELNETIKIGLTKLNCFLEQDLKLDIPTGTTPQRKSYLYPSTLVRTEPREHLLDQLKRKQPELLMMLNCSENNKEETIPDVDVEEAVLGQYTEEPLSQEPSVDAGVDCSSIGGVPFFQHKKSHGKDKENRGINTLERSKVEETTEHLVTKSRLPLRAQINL
# LC3/GABARAP = assay: as above; conditions: HEK293T cell lysate
# Experimental: Preparation of Affinity Matrix 10O5 and 8F20: Compounds 18 and 19 (1 µM) were linked to DMSO-washed NHS-activated ( ~ […] beads) sepharose beads (1 mL) and triethylamine (20 µL) in DMSO (2 mL) on an end-over-end shaker overnight at RT in the dark. Aminoethanol (50 µL) was then added to inactivate the remaining NHS-activated carboxylic acid groups. […] Successful immobilization was controlled by LC-MS and Kaiser-test[46].
# Preparation of cell lysates for affinity pulldown assays: HEK293 cells (ATCC; CRL-11268) were cultured in DMEM (PAN Biotech). All media were supplemented with 10% FBS (PAN Biotech) and cells were internally tested for Mycoplasma contamination. […] The protein amount of cell lysates was determined by Bradford assay and adjusted to a concentration of 5 mg/mL[46]. […]
# LC-MSMS measurement of (competition) pulldown assays: Peptides were analyzed via LC-MS/MS on a Dionex Ultimate3000 nano HPLC coupled to an Orbitrap Fusion Lumos mass spectrometer, operated via the Thermo Scientific Xcalibur software. […]
# The mass spectrometer was operated in data dependent mode, automatically switching between MS1 and MS2 spectra. […] Up to 12 peptide precursors were isolated (isolation width of 1.2 Th, maximum injection time of 75 ms, AGC value of 2e5), fragmented by HCD using 25 % […] normalized collision energy (NCE) and analyzed in the Orbitrap at a resolution of 15,000. […]
# LC3A [1] = target: T2, LC3A (Homo sapiens, UniProt Q9H492); assay: Isothermal titration calorimetry (ITC); conditions: replicates 1-3, rebuttal letter
# Excerpt: To minimize nonspecific dilution heat effects, DMSO concentrations in the protein and compound samples were matched. […] For this protocol, the chamber was pre-equilibrated with the protein, and the test compounds were titrated while continuously measuring the rate of exothermic heat evolution. The heat of binding was integrated, corrected, and fitted to an independent single-binding site model based on the manufacturer’s instructions, from which thermodynamic parameters (ΔH and TΔS), equilibrium association and dissociation constants (KA and KD, respectively), and stoichiometry (n) were calculated using TA Instruments NanoAnalyze software.
# [2] = tested on: LC3/GABARAPs (human Atg8 family); assay: FP assay with Cy5-labelled p62 LIR tracer, statements on all LC3/GABARAPs
# LC3A [3] = target: T2, LC3A; assay: Isothermal titration calorimetry (ITC); conditions: rounded, rebuttal letter; Novobiocin in reverse titration
additional targets in proteome-wide pulldown (KIF11),"Enthalpy (ITC, repeated titration) (LC3A [1]; listed as LY223982)","Stoichiometry, n (ITC, repeated titration) (LC3A [1]; listed as LY223982)","Kd (LC3A [1]; read-out: KD (ITC, repeated titration))",interaction with LC3/GABARAP family members in FP displacement assay [2],enthalpies observed in ITC experiments (LC3A [3]) [kcal/mol],SMILES,enrichment / pulldown of LC3/GABARAP by affinity matrix (LC3/GABARAP),"Entropy (ITC, repeated titration) (LC3A [1]; listed as LY223982)"
No additional targets were detected,,,,,,"Cc1ccc(C(=O)N(CCCNC(=O)CCOCCOCCOCCN)[C@@H](c2nc3cc(Cl)ccc3c(=O)n2Cc2ccccc2)C(C)C)cc1 [compound 19, (R)-N-(1-amino-12-oxo-3,6,9-trioxa-13-azahexadecan-16-yl)-N-(1-(3-benzyl-7-chloro-4-oxo-3,4-dihydroquinazolin-2-yl)−2-methylpropyl)−4-methylbenzamide]",did not enrich,
,"-11,64 kCal/mol and -9,814 kCal/mol","1,011 and 1,038 and 1,021",11.2 µM and 11.4 µM and 10 µM,selective binding to LC3 family members,-7,COc1ccc(/C=C/CCCCOc2ccc(C(=O)c3cccc(C(=O)O)c3)cc2CCC(=O)O)cc1 [compound 20],,"-12,88 Cal/(mol*K) and -16,4 Cal/(mol*K) and -10,29 Cal/(mol*K)"
